Experimental findings from US20250163048A1 (Tango Therapeutics, Inc., priority 2022, published 2025) are described below.

One may read the pIC50 as the IC50 on a negative log10 scale, so that one unit is a factor of ten. Broadly, the IC90 is the concentration at which the effect reaches the 90% level.

Each structure is given as a SMILES string. pIC50: −log10 of the molar value. Like-named read-outs stand apart in the source and are kept apart here. Some results are limits rather than exact numbers.

The subject of one assay is MTAP-deleted cell line. As to the kind of experiment: viability assay for the MTAP-deleted cell line. It is filed as cell-based. The note with it: Homo sapiens, HAP1, viability assay.
The test system of assay [1] is HAP1 MTAP-deleted cell line. Briefly: SDMA in-cell western assay, HAP1 MTAP-deleted. Particulars: for pIC50 / IC90: Homo sapiens; for Hap1 MTAP intact/deleted ratio: IC50 ratio between HAP1 MTAP-intact and HAP1 MTAP-deleted cell line.
Assay [2] relates to HAP1 MTAP-intact cell line. As to the kind of experiment: SDMA in-cell western assay, HAP1 MTAP-intact. Particulars: Homo sapiens.
Where [3] appears, read: HAP1, read-out: Hap1 MTAP deleted IC50, SDMA in-cell western, HAP1 MTAP-deleted cell line.
Where [4] appears, read: HAP1, read-out: Hap1 MTAP deleted IC90, SDMA in-cell western, HAP1 MTAP-deleted cell line.
[5] abbreviates: HAP1, read-out: Hap1 MTAP intact IC50, SDMA in-cell western, HAP1 MTAP-intact cell line.
Setting [6] is: HAP1, read-out: Hap1 MTAP deleted IC50, SDMA in-cell western assay, HAP1 MTAP-deleted cell line.
Setting [7] is: HAP1, read-out: Hap1 MTAP deleted IC90, SDMA in-cell western assay, HAP1 MTAP-deleted cell line.
[8] abbreviates: HAP1, read-out: Hap1 MTAP intact IC50, SDMA in-cell western assay, HAP1 MTAP-intact cell line.

Turning to `C[C@H]1CC[C@H]([C@H]2CCCOC2)N(C(=O)C(=O)Nc2cnc(N)c3cn[nH]c23)C1` (mixture of isomers) [Compound 140, N-(4-amino-1H-pyrazolo[4,3-c]pyridin-7-yl)-2-((2R,5S)-5-methyl-2-(rac-(R)-tetrahydro-2H-pyran-3-yl)piperidin-1-yl)-2-oxoacetamide], the pIC50 in the assay on MTAP-deleted cell line is 6.00 to 7.00; in assay [1] (setting [3]), 7.30 to 8.30; in assay [2] (setting [5]), less than 7.30. In addition, the IC90 in assay [1] (setting [4]) was greater than 0.125 µM. In assay [1] (SDMA in-cell western), the “Hap1 MTAP intact/deleted ratio” value was “A (“A” indicates an IC50 ratio greater than or equal to 30 fold)”.

Turning to `C[C@@H]1CC[C@@H](c2ccc3cnccc3c2)N(C(=O)C(=O)Nc2cnc(N)c3cn[nH]c23)C1` (racemic) [Compound 22, rac-N-(4-amino-1H-pyrazolo[4,3-c]pyridin-7-yl)-2-((2R,5S)-2-(isoquinolin-6-yl)-5-methylpiperidin-1-yl)-2-oxoacetamide], the results for the pIC50 (in the assay with MTAP-deleted cell line; in assay [1] (setting [3]); in assay [2] (setting [5])) were greater than 7.00, greater than 8.30 and 7.30 to 8.30, respectively. Moreover, the IC90 in assay [1] (setting [4]) was less than 0.075 µM. In assay [1] (SDMA in-cell western), the “Hap1 MTAP intact/deleted ratio” value was “C (“C” indicates an IC50 ratio of less than 15 fold)”.

Take `C[C@@H]1CC[C@@H](c2ccnn2C)N(C(=O)C(=O)Nc2cnc(N)c3cn[nH]c23)C1` (racemic) [Compound 115, N-(4-amino-1H-pyrazolo[4,3-c]pyridin-7-yl)-2-(rac-(2S,5R)-5-methyl-2-(1-methyl-1H-pyrazol-5-yl)piperidin-1-yl)-2-oxoacetamide]: the results for the pIC50 (in the assay on MTAP-deleted cell line; in assay [1] (setting [3]); in assay [2] (setting [5])) were greater than 7.00, greater than 8.30 and less than 7.30, respectively. In addition, the IC90 in assay [1] (setting [4]) was less than 0.075 µM. Moreover, the “Hap1 MTAP intact/deleted ratio” value in assay [1] (SDMA in-cell western) is “A (“A” indicates an IC50 ratio greater than or equal to 30 fold)”.

As to `CC(Cc1nc2cc([C@H]3CC[C@H](C)CN3C(=O)C(=O)Nc3ccn4ccnc4c3)ccc2s1)N1CCCC1` (mixture of isomers) [Compound 133, N-(imidazo[1,2-a]pyridin-7-yl)-2-((2R,5S)-5-methyl-2-(2-(2-(pyrrolidin-1-yl)propyl)benzo[d]thiazol-5-yl)piperidin-1-yl)-2-oxoacetamide], the negative-log IC50 (pIC50) in the assay on MTAP-deleted cell line is greater than 7.00; in assay [1] (setting [3]) it was greater than 8.30; in assay [2] (setting [5]) it was less than 7.30. Also, in assay [1] (setting [4]), the 90% effect concentration (IC90) lay in the range of 0.075 to 0.125 µM. Further, the “Hap1 MTAP intact/deleted ratio” value in assay [1] (SDMA in-cell western) is reported as “A (“A” indicates an IC50 ratio greater than or equal to 30 fold)”.

Regarding `C[C@H]1CC[C@H](c2ccc3scnc3c2)N(C(=O)C(=O)Nc2cncc3c(N)n[nH]c23)C1` (racemic) [Compound 139, N-(3-amino-1H-pyrazolo[4,3-c]pyridin-7-yl)-2-oxo-2-[rac-(2R,5S)-2-(1,3-benzothiazol-5-yl)-5-methyl-1-piperidyl]acetamide], the results for the negative-log IC50 (pIC50) (in the assay with MTAP-deleted cell line; in assay [1] (setting [3]); in assay [2] (setting [5])) were 6.00 to 7.00, 7.30 to 8.30 and less than 7.30, respectively. Besides, in assay [1] (setting [4]), the IC90 is greater than 0.125 µM. For the same compound, the “Hap1 MTAP intact/deleted ratio” value in assay [1] (SDMA in-cell western) is listed as “A (“A” indicates an IC50 ratio greater than or equal to 30 fold)”.

For `C[C@H]1CC[C@H](c2ccc3cn(C4CCOC4)nc3c2)N(C(=O)C(=O)Nc2cncc3cn[nH]c23)C1` (mixture of isomers) [Compound 148, 2-oxo-N-(1H-pyrazolo[4,3-c]pyridin-7-yl)-2-[rac-(2R,5S)-5-methyl-2-(2-tetrahydrofuran-3-ylindazol-6-yl)-1-piperidyl]acetamide], the pIC50 was 6.00 to 7.00 in the assay with MTAP-deleted cell line, 7.30 to 8.30 in assay [1] (setting [3]) and less than 7.30 in assay [2] (setting [5]). In assay [1] (setting [4]), the IC90 is 0.075 to 0.125 µM. The “Hap1 MTAP intact/deleted ratio” value in assay [1] (SDMA in-cell western) is listed as “B (“B” indicates an IC50 ratio greater than or equal to 15 fold but lower than 30 fold)”.

With `C[C@@H]1CC[C@@H](c2cc(Cl)cc(Cl)c2)N(C(=O)C(=O)Nc2cnc(N)c3cn[nH]c23)C1` (racemic) [Compound 161, N-(4-amino-1H-pyrazolo[4,3-c]pyridin-7-yl)-2-(rac-(2S,5R)-2-(3,5-dichlorophenyl)-5-methylpiperidin-1-yl)-2-oxoacetamide], the negative logarithm of the IC50 (pIC50) in the assay on MTAP-deleted cell line was greater than 7.00; in assay [1] (setting [3]) it was greater than 8.30; in assay [2] (setting [5]) it was less than 7.30. For the same compound, the concentration for an effect of 90% (IC90) in assay [1] (setting [4]) was less than 0.075 µM. Besides, the “Hap1 MTAP intact/deleted ratio” value in assay [1] (SDMA in-cell western) is on record as “A (“A” indicates an IC50 ratio greater than or equal to 30 fold)”.

On to `CC1CCC(c2ccc3cn(C4CCN(C)CC4C)nc3c2)N(C(=O)C(=O)Nc2cncc3cn[nH]c23)C1` (racemic) [Compound 173, 2-oxo-N-(1H-pyrazolo[4,3-c]pyridin-7-yl)-2-[rac-(2R,5S)-5-methyl-2-[2-[rac-(3R,4S)-1,3-dimethyl-4-piperidyl]indazol-6-yl]-1-piperidyl]acetamide], for which the pIC50 was greater than 7.00 in the assay on MTAP-deleted cell line, greater than 8.30 in assay [1] (setting [3]) and less than 7.30 in assay [2] (setting [5]). For the same compound, the IC90 in assay [1] (setting [4]) is less than 0.075 µM. In addition, in assay [1] (SDMA in-cell western), the “Hap1 MTAP intact/deleted ratio” value is given as “A (“A” indicates an IC50 ratio greater than or equal to 30 fold)”.

With `C[C@H]1CC[C@H](c2ccc(F)c(Cl)c2)N(C(=O)C(=O)Nc2cnc(N)c3cn[nH]c23)C1` (racemic) [Compound 184, N-(4-amino-1H-pyrazolo[4,3-c]pyridin-7-yl)-2-(rac-(2S,5R)-2-(3-chloro-4-fluorophenyl)-5-methylpiperidin-1-yl)-2-oxoacetamide], the negative logarithm of the IC50 (pIC50) is greater than 7.00 in the assay on MTAP-deleted cell line, greater than 8.30 in assay [1] (setting [3]) and less than 7.30 in assay [2] (setting [5]). Besides, the 90% effect concentration (IC90) in assay [1] (setting [4]) was less than 0.075 µM. Moreover, in assay [1] (SDMA in-cell western), the “Hap1 MTAP intact/deleted ratio” value was “A (“A” indicates an IC50 ratio greater than or equal to 30 fold)”.

For the compound `CCn1ncc2cc([C@H]3CC[C@H](C)CN3C(=O)C(=O)Nc3cnc(N)c4cn[nH]c34)ccc21` (racemic) [Compound 189, N-(4-Amino-1H-pyrazolo[4,3-c]pyridin-7-yl)-2-oxo-2-[rac-(2R,5S)-2-(1-ethylindazol-5-yl)-5-methyl-1-piperidyl]acetamide], the negative logarithm of the IC50 (pIC50) with MTAP-deleted cell line was greater than 7.00; in assay [1] (setting [3]) it was greater than 8.30; in assay [2] (setting [5]) it was 7.30 to 8.30. Besides, the concentration for an effect of 90% (IC90) in assay [1] (setting [4]) is less than 0.075 µM. For the same compound, the “Hap1 MTAP intact/deleted ratio” value in assay [1] (SDMA in-cell western) is listed as “C (“C” indicates an IC50 ratio of less than 15 fold)”.

Regarding `CC1OCc2c(NC(=O)C(=O)N3C[C@@H](C)CC[C@@H]3c3ccc4scnc4c3)cnc(N)c21` (mixture of isomers) [Compound 196, N-(4-amino-3-methyl-1,3-dihydrofuro[3,4-c]pyridin-7-yl)-2-oxo-2-[(2R,5S)-2-(1,3-benzothiazol-5-yl)-5-methyl-1-piperidyl]acetamide], the negative logarithm of the IC50 (pIC50) is greater than 7.00 with MTAP-deleted cell line; 7.30 to 8.30 in assay [1] (setting [3]); less than 7.30 in assay [2] (HAP1, read-out: Hap1 MTAP intact IC50). For the same compound, in assay [1] (setting [4]), the 90% effect concentration (IC90) is less than 0.075 µM. Besides, the “Hap1 MTAP intact/deleted ratio” value in assay [1] (SDMA in-cell western) is recorded as “C (“C” indicates an IC50 ratio of less than 15 fold)”.

Turning to `C[C@H]1CC[C@H](c2cccc(F)c2)N(C(=O)C(=O)Nc2cnc(N)c3cn[nH]c23)C1` (racemic) [Compound 198, N-(4-Amino-1H-pyrazolo[4,3-c]pyridin-7-yl)-2-oxo-2-[rac-(2R,5S)-2-(3-fluorophenyl)-5-methyl-1-piperidyl]acetamide], the pIC50 is greater than 7.00 in the assay on MTAP-deleted cell line, greater than 8.30 in assay [1] (setting [6]) and 7.30 to 8.30 in assay [2] (setting [8]). The IC90 in assay [1] (setting [7]) is less than 0.075 µM. Also, the “Hap1 MTAP intact/deleted ratio” value in assay [1] (SDMA in-cell western assay) is “B (“B” indicates an IC50 ratio greater than or equal to 15 fold but lower than 30 fold)”.

As for `C[C@H]1CC[C@H](c2ccc3c(c2)CCO3)N(C(=O)C(=O)Nc2cnc(N)c3cn[nH]c23)C1` (racemic) [Compound 206, N-(4-Amino-1H-pyrazolo[4,3-c]pyridin-7-yl)-2-oxo-2-[rac-(2R,5S)-2-(2,3-dihydrobenzofuran-5-yl)-5-methyl-1-piperidyl]acetamide], the figures for the pIC50 (in the assay on MTAP-deleted cell line; in assay [1] (setting [6]); in assay [2] (setting [8])) were greater than 7.00, greater than 8.30 and 7.30 to 8.30, respectively. Further, in assay [1] (setting [7]), the IC90 was less than 0.075 µM. The “Hap1 MTAP intact/deleted ratio” value in assay [1] (SDMA in-cell western assay) is listed as “B (“B” indicates an IC50 ratio greater than or equal to 15 fold but lower than 30 fold)”.

Consider `C[C@H]1CC[C@H](c2ccc3sc(C4CCC(N(C)C)CC4)nc3c2)N(C(=O)C(=O)Nc2cnc(N)c3cn[nH]c23)C1` (mixture of isomers) [Compound 212, N-(4-Amino-1H-pyrazolo[4,3-c]pyridin-7-yl)-2-oxo-2-[rac-(2R,5S)-2-[2-[4-(dimethylamino)cyclohexyl]-1,3-benzothiazol-5-yl]-5-methyl-1-piperidyl]acetamide], for which the negative logarithm of the IC50 (pIC50) with MTAP-deleted cell line is greater than 7.00; in assay [1] (setting [6]), greater than 8.30; in assay [2] (setting [8]), 7.30 to 8.30. For the same compound, the IC90 in assay [1] (setting [7]) was less than 0.075 µM. Besides, in assay [1] (SDMA in-cell western assay), the “Hap1 MTAP intact/deleted ratio” value is recorded as “C (“C” indicates an IC50 ratio of less than 15 fold)”.

For `Cc1ccc2ccc([C@H]3CC[C@H](C)CN3C(=O)C(=O)Nc3cnc(N)c4cn[nH]c34)cc2n1` (racemic) [Compound 215, N-(4-Amino-1H-pyrazolo[4,3-c]pyridin-7-yl)-2-oxo-2-[rac-(2R,5S)-5-methyl-2-(2-methyl-7-quinolyl)-1-piperidyl]acetamide], the negative logarithm of the IC50 (pIC50) in the assay on MTAP-deleted cell line is greater than 7.00; in assay [1] (setting [6]), greater than 8.30; in assay [2] (setting [8]), 7.30 to 8.30. Also, in assay [1] (setting [7]), the IC90 is less than 0.075 µM. Further, in assay [1] (SDMA in-cell western assay), the “Hap1 MTAP intact/deleted ratio” value is reported as “C (“C” indicates an IC50 ratio of less than 15 fold)”.

As to `C[C@@H]1CN(C(=O)C(=O)Nc2cnc(N)c3cn[nH]c23)[C@@H](c2ccccc2)CC1(F)F` (racemic) [Compound 216, N-(4-Amino-1H-pyrazolo[4,3-c]pyridin-7-yl)-2-oxo-2-[rac-(2R,5R)-4,4-difluoro-5-methyl-2-phenyl-1-piperidyl]acetamide], the negative-log IC50 (pIC50) in the assay with MTAP-deleted cell line is greater than 7.00; in assay [1] (setting [6]), greater than 8.30; in assay [2] (setting [8]), 7.30 to 8.30. The 90% effect concentration (IC90) in assay [1] (setting [7]) was less than 0.075 µM. The “Hap1 MTAP intact/deleted ratio” value in assay [1] (SDMA in-cell western assay) is given as “C (“C” indicates an IC50 ratio of less than 15 fold)”.
